Laboratory results reported in patent US20110021531A1, “OXAZOLE DERIVATIVES USEFUL AS INHIBITORS OF FAAH” (priority 2009, published 2011).
Where a name gives a salt, the structure may show the parent alone.

Legend:
[1] = target: T1, human FAAH (Fatty Acid Amide Hydrolase) (Homo sapiens, UniProt O00519); assay: FAAH enzyme assay on lysate of CHO cells expressing human FAAH; type: biochemical
T1 construct: The full length FAAH was subcloned into the mammalian expression vector, pcDEF.neo
T1 sequence (O00519 1-579): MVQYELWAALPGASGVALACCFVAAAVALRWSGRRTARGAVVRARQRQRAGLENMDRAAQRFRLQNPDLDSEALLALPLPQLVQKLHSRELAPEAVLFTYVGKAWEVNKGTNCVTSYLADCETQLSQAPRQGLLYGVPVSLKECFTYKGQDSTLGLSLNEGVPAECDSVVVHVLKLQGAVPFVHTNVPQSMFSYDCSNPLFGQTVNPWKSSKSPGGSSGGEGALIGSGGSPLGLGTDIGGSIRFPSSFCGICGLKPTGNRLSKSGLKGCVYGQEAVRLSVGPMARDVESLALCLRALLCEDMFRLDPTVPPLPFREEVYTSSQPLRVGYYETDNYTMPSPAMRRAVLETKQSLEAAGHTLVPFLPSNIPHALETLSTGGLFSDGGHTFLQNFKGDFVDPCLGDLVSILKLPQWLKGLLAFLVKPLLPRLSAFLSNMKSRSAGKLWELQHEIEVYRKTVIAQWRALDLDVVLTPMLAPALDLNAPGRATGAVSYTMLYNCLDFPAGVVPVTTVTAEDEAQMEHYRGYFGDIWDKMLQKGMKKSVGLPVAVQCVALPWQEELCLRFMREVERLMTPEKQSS
From the text: (§1) To assist in assay development stable cell lines for human, murine and rat full length FAAH were developed. Human FAAH cDNA (Accession No: NM_001441.1) was purchased from Origene (Rockville, Md.). The full length FAAH was subcloned into the mammalian expression vector, pcDEF.neo, using XbaI and EcoRI restriction sites and used for stable cell line generation.
CHO cells expressing FAAH were used to prepare either crude cell lysate or microsome fractions. To harvest cells, tissue culture media was decanted, the monolayer washed three times with Ca^++Mg^++ free PBS and cells recovered after […] in enzyme free dissociation media (Millipore Corp, Billerica, Mass.). Cells were collected by centrifuging at 2000 rpm for 15 min. and the cell pellet re-suspended with 50 mM HEPES (pH 7.4) containing 1 mM EDTA and the protease inhibitors aprotinin (1 mg/ml) and leupeptin (100 μM). The suspension was sonicated at 4° C. and the cell lysate recovered after centrifuging at 12,000×g (14,600 rpm, SS34 rotor) for 20 min at 4° C. to form a crude pellet of cell debris, nuclei, peroxisomes, lysosomes, and mitochondria; the supernatant or cell lysate was used for FAAH enzyme assay. In some cases, microsomes fractions enriched in FAAH were prepared by centrifuging the cell lysate further at 27,000 rpm (100,000×g) in SW28 rotor for 50 minutes at 4° C. The pellet containing FAAH-enriched microsomes was re-suspend in 50 mM HEPES, (pH 7.4) 1 mM EDTA, and any remaining DNA sheared by passage of material through a 23 gauge needle and aliquots of enzyme were store at −80° C. prior to use.
(§2) (American Radiolabeled Chemicals; 1 mCi/ml) with FAAH (Life Sciences (1995), 56, 1999-2005 and Journal of Pharmacology and Experimented Therapeutics (1997), 283, 729-734), Analytical. Biochemistry (2003), 318, 270-5. In addition, routine assays were performed monitoring hydrolysis of arachidonyl-7-amino-4-methylcoumarin amide (AAMCA) by following increase in fluorescence upon release of 7-amino 4-methyl coumarin (λEX=355 nm, (λEM=460 nm). Analytical. Biochemistry (2005). 343, 143-51
(§3) Assays are performed on either cell lysate or microsome fractions prepared as described or in whole cell format employing either the fluorescent substrate AAMCA (Cayman chemical, Ann Arbor, Mich.,) or ^3H-anandmaide ([ETHANOLAMINE-1-3H]American Radiolabeled Chemicals; 1 mCi/ml). The cell lysate or microsome assay is performed in Costar black wall, clear bottom plates by adding FAAH_CF10 (whole cell, cell lysate or microsome) in assay buffer (50 mM Phosphate, pH 8.0, 1 mM EDTA, 200 mM KCl, 0.2% glycerol, 0.1% fatty acid free BSA) to each well, followed by either DMSO or compound and allowed to incubate at 22-25° C. for fifteen minutes. AAMCA substrate was used to achieve a final concentration of 1 μM and reaction allowed to proceed at room temperature for 1-3 hours. Fluorescent release as a measure of FAAH activity was monitored by reading the plate in a CytoFluor Multiplate Reader (Ex: […]). Whole cell assay is conducted with cells harvested after rinsing tissue culture flasks three times with Ca^++Mg^++ free PBS, incubating for 10 min in Enzyme free dissociation media and centrifuging for 5 minutes at 1,000 rpm in table top centrifuge. Cells are resuspended in assay buffer at desired cell number in (4×10^4 cells/assay in 96-well format; 1×10^4 cells/assay in 384-well format) and assayed as described.
Alternatively, assays are performed using anandamide [ethanolamine 1-^3H] (specific activity of 10 Ci/mmol) diluted with cold anandamide to achieve a final assay concentration of 1 μM anandamide (˜50,000 cpm). Enzyme (CHO cell lysate, brain or liver homogenate) is incubated in assay buffer (50 mM Phosphate, pH 8.0, 1 mM EDTA, 200 mM KCl, 0.2% glycerol, 0.1% fatty acid free BSA) with inhibitor at 25° C. for 30 minutes. The reaction was terminated by addition of 2 volumes of chloroform:methanol (1:1) and mixed by vortexing. […]

[2] = target: T1, human FAAH (Fatty Acid Amide Hydrolase); assay: FAAH whole cell assay, CHO cells expressing human FAAH; type: cell-based
From the text: as §1
(§4) Murine (accession number NM_010173) and Rat FAAH (accession number NM_024132) was amplified by reverse transcriptase polymerase chain reaction (RT-PCR) from brain cDNA (BD Biosciences, San Jose, Calif.) using primers 1 and 2 or primers 1 and 3 respectively (see Table). The resulting PCR product was ligated into pCR4 TOPO and DNA sequence confirmed. The full length murine FAAH was subcloned into the mammalian expression vector, pcDEFneo using either EcoRI (murine) or KpnI and EcoRI (rat) restriction sites. Chinese hamster ovary cells (CHO) were transfected following manufacturers protocol (AMAXA). Forty eight hours post transfection, cells were trypsinized and transferred to 96 well plates in Iscove's DMEM media supplemented with 2 mM Glutamine, 10% fetal calf serum, 1 mg/ml geneticin and HT Supplement (0.1 mM sodium hypoxanthine, 0.016 mM thymidine) in order to isolate single clones. Following selection in geneticin, individual clones were selected and FAAH activity was assessed using a whole cell fluorescent anandamide assay, modified from Ramarao et al (2005). Following removal of tissue culture media cells were dislodged following addition of Cellstripper (Mediatech, Inc. Manassas, Va.) and transferred to 96 well black clear bottom assay plate, centrifuged at 1,000 rpm for 3 mins and media removed and replaced with assay buffer (50 mM Iris pH8.0, 1 mM EDTA, 0.1% fatty acid free BSA). The reaction was initiated by addition of fluorescent substrate, AMC Arachidonoyl Amide (Cayman Chemical, Ann Arbor, Mich.) to 1 μM and reaction allowed to proceed for 2 hours at room temperature. Release of fluorescence was monitored in a CytoFluor Multiplate Reader. Cells expressing the highest amount of FAAH activity were selected for study with FAAH inhibitors.
as §2, §3

[3] = target: T2, rat FAAH (Fatty Acid Amide Hydrolase) (Rattus norvegicus, UniProt P97612); assay: FAAH whole cell assay, CHO cells expressing rat FAAH; type: cell-based
T2 sequence (P97612 1-579): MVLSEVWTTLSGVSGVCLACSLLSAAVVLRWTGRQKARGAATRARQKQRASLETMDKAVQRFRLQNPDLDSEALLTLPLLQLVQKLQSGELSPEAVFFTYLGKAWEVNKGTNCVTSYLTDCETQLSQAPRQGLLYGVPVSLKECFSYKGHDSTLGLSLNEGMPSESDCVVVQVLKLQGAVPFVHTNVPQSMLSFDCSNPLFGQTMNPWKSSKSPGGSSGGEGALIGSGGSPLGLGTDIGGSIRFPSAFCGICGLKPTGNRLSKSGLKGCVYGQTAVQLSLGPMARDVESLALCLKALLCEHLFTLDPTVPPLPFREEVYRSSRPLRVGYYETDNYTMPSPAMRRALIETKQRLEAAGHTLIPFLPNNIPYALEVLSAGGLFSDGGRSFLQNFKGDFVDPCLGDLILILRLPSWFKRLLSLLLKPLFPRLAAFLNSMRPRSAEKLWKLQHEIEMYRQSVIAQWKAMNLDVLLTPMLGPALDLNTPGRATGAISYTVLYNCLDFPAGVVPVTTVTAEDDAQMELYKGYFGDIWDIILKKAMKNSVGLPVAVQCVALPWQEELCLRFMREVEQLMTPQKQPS
From the text: as §1, §4, §2, §3

| SMILES | IC50 [1] | IC50 [2] | IC50 [3] |
| --- | --- | --- | --- |
| C[S+]([O-])c1ccc(-c2nc(-c3ccc(F)cc3)oc2Sc2ccc(Cl)cn2)cn1 (racemic) [Ex 108, (R)-5-Chloro-2-({2-(4-fluorophenyl)-4-[6-(methylsulfinyl)pyridin-3-yl]-1,3-oxazol-5-yl}sulfanyl)pyridine and (S)-5-Chloro-2-({2-(4-fluorophenyl)-4-[6-(methylsulfinyl)pyridin-3-yl]-1,3-oxazol-5-yl}sulfanyl)pyridine] | 5 nM | 20 nM | 17 nM |
| CC(C)(O)c1cnc(-c2nc(-c3ccc(F)cc3)oc2Sc2ccc(Cl)cn2)cn1 [Ex 3, 2-{5-[5-[(5-Chloropyridin-2-yl)thio]-2-(4-fluorophenyl)-1,3-oxazol-4-yl]pyrazin-2-yl}propan-2-ol] | 23 nM | 71 nM | 44 nM |
| CC(C)(O)c1ccc(-c2nc(-c3ccc(F)cc3)oc2Sc2ccc(Cl)cn2)cn1 [Ex 12, 2-{5-[5-[(5-Chloropyridin-2-yl)thio]-2-(4-fluorophenyl)-1,3-oxazol-4-yl]pyridin-2-yl}propan-2-ol] | 19 nM | 25 nM | 13 nM |
| CC(C)(O)c1ccc(-c2nc(-c3ccc(F)cc3)oc2Sc2ccc(F)cn2)cn1 [Ex 19] | 38 nM | 78 nM | 18 nM |
| CC(C)(O)c1ccc(-c2nc(-c3ccc(F)cc3)oc2Sc2ncc(Cl)cn2)cn1 [Ex 20] | 43 nM | 59 nM | 29 nM |
| CC(C)(O)c1ccc(-c2nc(-c3ccc(F)c(F)c3)oc2Sc2ccc(Cl)cn2)cn1 [Ex 35] | 27 nM | 37 nM | 21 nM |
| Cc1cc(F)ccc1-c1nc(-c2ccc(C(C)(C)O)nc2)c(Sc2ccc(Cl)cn2)o1 [Ex 37] | 13 nM | 40 nM | 15 nM |
| CC(C)(O)c1ccc(-c2nc(-c3ccc(F)cc3)oc2Sc2ccc(Cl)cc2)nc1 [Ex 46] | 17 nM | 39 nM | 10 nM |
| Fc1ccc(-c2nc(-c3ccc(-c4ncon4)cc3)c(Sc3ccc(Cl)cc3)o2)cc1 [Ex 48, 3-{4-[5-[(4-Chlorophenyl)thio]-2-(4-fluorophenyl)-1,3-oxazol-4-yl]phenyl}-1,2,4-oxadiazole] | 9 nM | 77 nM | 8 nM |
| CC(C)(O)c1ccc(-c2nc(-c3ccccn3)oc2Sc2ccc(Cl)cn2)cn1 [Ex 51, 2-(5-{5-[(5-chloropyridin-2-yl)thio]-2-pyridin-2-yl-1,3-oxazol-4-yl}pyridin-2-yl)propan-2-ol, trifluoroacetic acid salt] | 26 nM | 148 nM | 107 nM |
| CS(=O)(=O)c1ccc(-c2nc(-c3ccccn3)oc2Sc2ccc(Cl)cc2)cc1 [Ex 56, 2-{5-[(4-chlorophenyl)thio]-4-[4-(methylsulfonyl)phenyl]-1,3-oxazol-2-yl}pyridine] | 15 nM | 114 nM | 16 nM |
| CC(C)(O)c1ccc(-c2nc(-c3cc(F)c(F)cc3F)oc2Sc2ccc(Cl)cn2)cn1 [Ex 58] | 37 nM | 112 nM | 74 nM |
| Cc1ccc(-c2nc(-c3ccc(C(C)(C)O)nc3)c(Sc3ccc(Cl)cn3)o2)cc1 [Ex 59] | 20 nM | 67 nM | 40 nM |
| CC(C)(O)c1ccc(-c2nc(-c3ccccc3)oc2Sc2ncc(Cl)cn2)cn1 [Ex 62] | 23 nM | 41 nM | 29 nM |
| COc1ccc(Sc2oc(-c3ccc(F)cc3)nc2-c2ccc(C(C)(C)O)nc2)c(F)c1 [Ex 65] | 27 nM | 29 nM | 21 nM |
| CC(C)(O)c1ccc(-c2nc(-c3ccc(OC(F)(F)F)cc3)oc2Sc2ccc(Cl)cn2)cn1 [Ex 68] | 15 nM | 100 nM | 83 nM |
| CCOC(=O)c1cc(-c2nc(-c3ccc(F)cc3)oc2Sc2ccc(Cl)cn2)on1 [Ex 97, Ethyl 5-{5-[(5-chloropyridin-2-yl)sulfanyl]-2-(4-fluorophenyl)-1,3-oxazol-4-yl}isoxazole-3-carboxylate] | 20 nM |  | 10 nM |
